Test results reported in patent US20120121591A1 (priority 2009, published 2012).
Where two headings read alike, the source gives them in different places.

Assays:
Format in all cases: cell-based
[1] = tested on: IFN-g secretion from T cells in human whole blood
[2] = tested on: IL-2 secretion from T cells in human whole blood; conditions: read-out: WB (IL-2) IC50 (nM, Avg)
hKv1.3 = hKv1.3 (Homo sapiens, UniProt P22001); test: cell-based; conditions: Kv1.3 (IWQ) IC50 (nM, Avg)
[3] = read-out: WB (IFNg) IC50 (nM, Avg)

Chain of hKv1.3 (P22001 whole entry): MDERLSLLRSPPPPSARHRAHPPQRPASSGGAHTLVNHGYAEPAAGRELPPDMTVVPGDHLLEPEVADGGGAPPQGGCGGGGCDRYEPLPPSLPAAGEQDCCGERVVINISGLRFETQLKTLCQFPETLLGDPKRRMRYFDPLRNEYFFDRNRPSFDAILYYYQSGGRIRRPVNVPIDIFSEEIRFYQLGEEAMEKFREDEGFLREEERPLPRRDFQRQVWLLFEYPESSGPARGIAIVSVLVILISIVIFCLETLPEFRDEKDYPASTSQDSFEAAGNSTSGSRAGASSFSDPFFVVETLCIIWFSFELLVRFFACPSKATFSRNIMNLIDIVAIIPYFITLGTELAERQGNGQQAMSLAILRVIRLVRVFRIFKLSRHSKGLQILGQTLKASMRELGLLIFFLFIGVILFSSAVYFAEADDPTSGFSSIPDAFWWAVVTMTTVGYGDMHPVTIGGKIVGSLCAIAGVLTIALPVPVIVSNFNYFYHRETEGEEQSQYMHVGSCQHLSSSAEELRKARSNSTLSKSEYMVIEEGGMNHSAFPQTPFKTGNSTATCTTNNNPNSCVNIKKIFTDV

| SMILES | IC50 [1, 3] [nM] | IC50 [2] [nM] | IC50 (hKv1.3) [nM] | IC50 ([1]; read-out: WB (IFNg) IC5- (nM, Avg)) [nM] |
| --- | --- | --- | --- | --- |
| CC[C@H](C)[C@@H]1NC(=O)[C@@H](NC(=O)[C@H](CO)NC(=O)[C@@H](N)CCCNC(=N)N)CSSC[C@@H](C(=O)O)NC(=O)[C@H]([C@@H](C)O)NC(=O)CNC(=O)[C@@H]2CSSC[C@@H]3NC(=O)[C@H](CCC(N)=O)NC(=O)[C@H](Cc4ccccc4)NC(=O)[C@H](C)NC(=O)[C@H]([C@@H](C)O)NC(=O)[C@H](CSSC[C@H](NC(=O)[C@H](Cc4ccccc4)NC(=O)[C@H](CO)NC(=O)[C@H](CC(C)C)NC(=O)[C@H](CCCNC(=N)N)NC(=O)[C@H](Cc4ccc(O)cc4)NC(=O)[C@H](CCCCN)NC(=O)[C@H](CCSC)NC(=O)[C@H](CO)NC(=O)[C@H](Cc4c[nH]cn4)NC(=O)[C@H](CCCCN)NC3=O)C(=O)N[C@@H](CCCNC(=N)N)C(=O)N[C@@H](CCCCN)C(=O)N[C@@H]([C@@H](C)O)C(=O)N2)NC(=O)[C@H](CCCNC(=N)N)NC(=O)[C@H](CO)NC(=O)[C@H](CCCCN)NC(=O)[C@@H]2CCCN2C(=O)[C@H]([C@@H](C)CC)NC(=O)[C@H]([C@@H](C)O)NC(=O)[C@H](CCCNC(=N)N)NC1=O [[Arg5]ShK] | 91.7 | 47.3 | 3.3 | – |
| CCCC[C@@H]1NC(=O)[C@H](CO)NC(=O)[C@H](Cc2c[nH]cn2)NC(=O)[C@H](CCCCN)NC(=O)[C@@H]2CSSC[C@@H]3NC(=O)[C@H]([C@@H](C)O)NC(=O)[C@H](CCCCN)NC(=O)[C@H](CCCNC(=N)N)NC(=O)[C@H](CSSC[C@H](NC(=O)[C@H](CCCNC(=N)N)NC(=O)[C@H](CO)NC(=O)[C@H](CCCCN)NC(=O)[C@@H]4CCCN4C(=O)[C@H]([C@@H](C)CC)NC(=O)[C@H]([C@@H](C)O)NC(=O)[C@H](CC(=O)O)NC(=O)[C@H]([C@@H](C)CC)NC(=O)[C@@H](NC(=O)[C@H](CO)NC(=O)[C@@H](N)CCCNC(=N)N)CSSC[C@@H](C(=O)N[C@@H](C)C(=O)O)NC(=O)[C@H]([C@@H](C)O)NC(=O)CNC3=O)C(=O)N[C@@H]([C@@H](C)O)C(=O)N[C@@H](C)C(=O)N[C@@H](Cc3ccccc3)C(=O)N[C@@H](CCCCN)C(=O)N2)NC(=O)[C@H](Cc2ccccc2)NC(=O)[C@H](CO)NC(=O)[C@H](CC(C)C)NC(=O)[C@H](CCCNC(=N)N)NC(=O)[C@H](Cc2ccc(O)cc2)NC(=O)[C@H](CCCCN)NC1=O [[Lys16,N1e21]ShK-Ala] | 0.515 | 0.305 | 33.3 | – |
| CC[C@H](C)[C@@H]1NC(=O)[C@@H](NC(=O)[C@H](CO)NC(=O)[C@@H](N)CCCNC(=N)N)CSSC[C@@H](C(=O)O)NC(=O)[C@H]([C@@H](C)O)NC(=O)CNC(=O)[C@@H]2CSSC[C@@H]3NC(=O)[C@H](CCC(N)=O)NC(=O)[C@H](Cc4ccccc4)NC(=O)[C@H](C)NC(=O)[C@H]([C@@H](C)O)NC(=O)[C@H](CSSC[C@H](NC(=O)[C@H](CCCNC(=N)N)NC(=O)[C@H](CO)NC(=O)[C@H](CC(C)C)NC(=O)[C@H](CCCNC(=N)N)NC(=O)[C@H](Cc4ccc(O)cc4)NC(=O)[C@H](CCCCN)NC(=O)[C@H](CCSC)NC(=O)[C@H](CO)NC(=O)[C@H](Cc4c[nH]cn4)NC(=O)[C@H](CCCCN)NC3=O)C(=O)N[C@@H](CCCNC(=N)N)C(=O)N[C@@H](CCCCN)C(=O)N[C@@H]([C@@H](C)O)C(=O)N2)NC(=O)[C@H](CCCNC(=N)N)NC(=O)[C@H](CO)NC(=O)[C@H](CCCCN)NC(=O)[C@@H]2CCCN2C(=O)[C@H]([C@@H](C)CC)NC(=O)[C@H]([C@@H](C)O)NC(=O)[C@H](CC(=O)O)NC1=O [[Arg27]ShK] | 59.7 | 13 | 100 | – |
| CCCC[C@@H]1NC(=O)[C@H](CO)NC(=O)[C@H](Cc2c[nH]cn2)NC(=O)[C@H](CCCCN)NC(=O)[C@@H]2CSSC[C@@H]3NC(=O)[C@H]([C@@H](C)O)NC(=O)[C@H](CCCNC(=N)N)NC(=O)[C@H](CCCCN)NC(=O)[C@H](CSSC[C@H](NC(=O)[C@H](CCCNC(=N)N)NC(=O)[C@H](CO)NC(=O)[C@H](CCCCN)NC(=O)[C@@H]4CCCN4C(=O)[C@H]([C@@H](C)CC)NC(=O)[C@H]([C@@H](C)O)NC(=O)[C@H](CC(=O)O)NC(=O)[C@H](CCC(=O)O)NC(=O)[C@@H](NC(=O)[C@H](CO)NC(=O)[C@@H](N)CCCNC(=N)N)CSSC[C@@H](C(N)=O)NC(=O)[C@H]([C@@H](C)O)NC(=O)CNC3=O)C(=O)N[C@@H]([C@@H](C)O)C(=O)N[C@@H](C)C(=O)N[C@@H](Cc3ccccc3)C(=O)N[C@@H](CCCCN)C(=O)N2)NC(=O)[C@H](Cc2ccccc2)NC(=O)[C@H](Cc2cccc3ccccc23)NC(=O)[C@H](CC(C)C)NC(=O)[C@H](CCCNC(=N)N)NC(=O)[C@H](Cc2ccc(O)cc2)NC(=O)[C@H](CCCCN)NC1=O | 17.4 | 10.7 | 1.66 | – |
| CC[C@H](C)[C@@H]1NC(=O)[C@@H](NC(=O)[C@H](CO)NC(=O)[C@@H](N)CCCNC(=N)N)CSSC[C@@H](C(N)=O)NC(=O)[C@H]([C@@H](C)O)NC(=O)CNC(=O)[C@@H]2CSSC[C@@H]3NC(=O)[C@H](CCCCN)NC(=O)[C@H](Cc4ccccc4)NC(=O)[C@H](C)NC(=O)[C@H]([C@@H](C)O)NC(=O)[C@H](CSSC[C@H](NC(=O)[C@H](Cc4ccccc4)NC(=O)[C@H](CO)NC(=O)[C@H](CC(C)C)NC(=O)[C@H](CCCNC(=N)N)NC(=O)[C@H](Cc4ccc(O)cc4)NC(=O)[C@H](CCCCN)NC(=O)[C@H](Cc4c[nH]cn4)NC(=O)[C@H](CO)NC(=O)[C@H](Cc4c[nH]cn4)NC(=O)[C@H](CCCCN)NC3=O)C(=O)N[C@@H](CCCNC(=N)N)C(=O)N[C@@H](CCCCN)C(=O)N[C@@H]([C@@H](C)O)C(=O)N2)NC(=O)[C@H](CCCNC(=N)N)NC(=O)[C@H](CO)NC(=O)[C@H](CCCCN)NC(=O)[C@@H]2CCCN2C(=O)[C@H]([C@@H](C)CC)NC(=O)[C@H]([C@@H](C)O)NC(=O)[C@H](CC(=O)O)NC1=O [[Lys16, His21]ShK-amide] | 9.25 | 5.5 | 0.219 | – |
| CC[C@H](C)[C@@H]1NC(=O)[C@@H](NC(=O)[C@H](CO)NC(=O)[C@@H](N)CCCNC(=N)N)CSSC[C@@H](C(N)=O)NC(=O)[C@H]([C@@H](C)O)NC(=O)CNC(=O)[C@@H]2CSSC[C@@H]3NC(=O)[C@H](CCCCN)NC(=O)[C@H](Cc4ccccc4)NC(=O)[C@H](C)NC(=O)[C@H]([C@@H](C)O)NC(=O)[C@H](CSSC[C@H](NC(=O)[C@H](Cc4ccccc4)NC(=O)[C@H](CO)NC(=O)[C@H](CC(C)C)NC(=O)[C@H](CCCNC(=N)N)NC(=O)[C@H](Cc4ccc(O)cc4)NC(=O)[C@H](CCCCN)NC(=O)[C@H](CCSC)NC(=O)[C@H](CO)NC(=O)[C@H](Cc4c[nH]cn4)NC(=O)[C@H](CCCNC(=N)N)NC3=O)C(=O)N[C@@H](CCCCN)C(=O)N[C@@H](CCCNC(=N)N)C(=O)N[C@@H]([C@@H](C)O)C(=O)N2)NC(=O)[C@H](CCCNC(=N)N)NC(=O)[C@H](CO)NC(=O)[C@H](CCCCN)NC(=O)[C@@H]2CCCN2C(=O)[C@H]([C@@H](C)CC)NC(=O)[C@H]([C@@H](C)O)NC(=O)[C@H](CC(=O)O)NC1=O [[Lys16, 29;Arg18,30]ShK-amide] | 0.242 | 0.26 | 0.401 | – |
| CC[C@H](C)[C@@H]1NC(=O)[C@@H](NC(=O)[C@H](CO)NC(=O)[C@@H](N)CCCNC(=N)N)CSSC[C@@H](C(=O)O)NC(=O)[C@H]([C@@H](C)O)NC(=O)CNC(=O)[C@@H]2CSSC[C@@H]3NC(=O)[C@H](CCC(N)=O)NC(=O)[C@H](Cc4ccccc4)NC(=O)[C@H](C)NC(=O)[C@H]([C@@H](C)O)NC(=O)[C@H](CSSC[C@H](NC(=O)[C@H](Cc4ccccc4)NC(=O)[C@H](CO)NC(=O)[C@H](CC(C)C)NC(=O)[C@H](CCCNC(=N)N)NC(=O)[C@H](Cc4ccc(O)cc4)NC(=O)[C@H](CCCCN)NC(=O)[C@H](CCSC)NC(=O)[C@H](CO)NC(=O)[C@H](Cc4c[nH]cn4)NC(=O)[C@H](CCCCN)NC3=O)C(=O)N[C@@H](CCCNC(=N)N)C(=O)N[C@@H](CCCCN)C(=O)N[C@@H]([C@@H](C)O)C(=O)N2)NC(=O)[C@H](CCCNC(=N)N)NC(=O)[C@H](CO)NC(=O)[C@H](CCC(=O)O)NC(=O)[C@@H]2CCCN2C(=O)[C@H]([C@@H](C)CC)NC(=O)[C@H]([C@@H](C)O)NC(=O)[C@H](CC(=O)O)NC1=O [[Glu9]ShK] | – | 0.036 | 0.128 | 0.056 |
| CC[C@H](C)[C@@H]1NC(=O)[C@@H](NC(=O)[C@H](CO)NC(=O)[C@@H](N)CCCNC(=N)N)CSSC[C@@H](C(=O)O)NC(=O)[C@H]([C@@H](C)O)NC(=O)CNC(=O)[C@@H]2CSSC[C@@H]3NC(=O)[C@H](CCC(N)=O)NC(=O)[C@H](Cc4cccc5ccccc45)NC(=O)[C@H](C)NC(=O)[C@H]([C@@H](C)O)NC(=O)[C@H](CSSC[C@H](NC(=O)[C@H](Cc4ccccc4)NC(=O)[C@H](CO)NC(=O)[C@H](CC(C)C)NC(=O)[C@H](CCCNC(=N)N)NC(=O)[C@H](Cc4ccc(O)cc4)NC(=O)[C@H](CCCCN)NC(=O)[C@H](CCSC)NC(=O)[C@H](CO)NC(=O)[C@H](Cc4c[nH]cn4)NC(=O)[C@H](CCCCN)NC3=O)C(=O)N[C@@H](CCCNC(=N)N)C(=O)N[C@@H](CCCCN)C(=O)N[C@@H]([C@@H](C)O)C(=O)N2)NC(=O)[C@H](CCCNC(=N)N)NC(=O)[C@H](CO)NC(=O)[C@H](CCCCN)NC(=O)[C@@H]2CCCN2C(=O)[C@H]([C@@H](C)CC)NC(=O)[C@H]([C@@H](C)O)NC(=O)[C@H](CC(=O)O)NC1=O [[1-Nal15]ShK] | 0.291 | 0.184 | 0.072 | – |
| CC[C@H](C)[C@@H]1NC(=O)[C@@H](NC(=O)[C@H](CO)NC(=O)[C@@H](N)CCCNC(=N)N)CSSC[C@@H](C(=O)O)NC(=O)[C@H]([C@@H](C)O)NC(=O)CNC(=O)[C@@H]2CSSC[C@@H]3NC(=O)[C@H](CCC(N)=O)NC(=O)[C@H](Cc4ccccc4)NC(=O)[C@H](C)NC(=O)[C@H]([C@@H](C)O)NC(=O)[C@H](CSSC[C@H](NC(=O)[C@H](Cc4ccccc4)NC(=O)[C@H](CO)NC(=O)[C@H](CC(C)C)NC(=O)[C@H](CCCNC(=N)N)NC(=O)[C@H](Cc4ccc(O)cc4)NC(=O)[C@H](CCCCN)NC(=O)[C@H](CCSC)NC(=O)[C@H](CO)NC(=O)[C@H](Cc4c[nH]cn4)NC(=O)[C@H](CCCCN)NC3=O)C(=O)N[C@@H](CCCNC(=N)N)C(=O)N[C@@H](CCCCN)C(=O)N[C@@H]([C@@H](C)O)C(=O)N2)NC(=O)[C@H](CCCNC(=N)N)NC(=O)[C@H](CO)NC(=O)[C@H](CCCCN)NC(=O)[C@@H]2CCCN2C(=O)[C@H](CCCNC(=N)N)NC(=O)[C@H]([C@@H](C)O)NC(=O)[C@H](CC(=O)O)NC1=O [[Arg7]ShK] | 11.1 | 6.39 | 0.301 | – |
